Measurements from PMC4286194 (Biochemical Journal, 2015).

Key:
Assay in all cases: Kinase profiling
Assay type in all cases: biochemical
PAK6 = PAK6 (Homo sapiens, UniProt Q9NQU5)
PKA = PKA (Homo sapiens, UniProt P17612)
MNK2 = MNK2 (Homo sapiens, UniProt Q9HBH9)
p38 gamma MAPK = target: T1, p38 gamma MAPK (Homo sapiens, UniProt P53778)
T1 sequence (P53778 1-367): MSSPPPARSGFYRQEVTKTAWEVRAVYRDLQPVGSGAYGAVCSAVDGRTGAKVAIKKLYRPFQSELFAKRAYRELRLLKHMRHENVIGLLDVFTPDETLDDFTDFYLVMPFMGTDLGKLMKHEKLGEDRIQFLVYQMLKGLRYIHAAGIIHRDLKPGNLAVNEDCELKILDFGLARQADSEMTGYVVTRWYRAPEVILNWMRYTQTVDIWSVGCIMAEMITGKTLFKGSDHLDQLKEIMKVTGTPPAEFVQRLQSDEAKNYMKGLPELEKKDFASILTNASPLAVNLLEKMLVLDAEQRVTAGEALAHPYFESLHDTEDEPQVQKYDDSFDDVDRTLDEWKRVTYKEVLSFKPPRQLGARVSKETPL

IR = IR (Homo sapiens, UniProt P06213)
S6K1 = S6K1 (Homo sapiens, UniProt P23443)
MAPKAP-K3 = MAPKAP-K3 (Homo sapiens, UniProt Q16644)
MEKK1 = MEKK1 (Homo sapiens, UniProt Q13233)
p38 beta MAPK = p38 beta MAPK (Homo sapiens, UniProt Q15759)
MARK2 = MARK2 (Homo sapiens, UniProt Q7KZI7)
HER4 = HER4 (Homo sapiens, UniProt Q15303)
PKC alpha = PKC alpha (Homo sapiens, UniProt P17252)
PKC zeta = target: T2, PKC zeta (Homo sapiens, UniProt Q05513)
T2 sequence (Q05513 1-592): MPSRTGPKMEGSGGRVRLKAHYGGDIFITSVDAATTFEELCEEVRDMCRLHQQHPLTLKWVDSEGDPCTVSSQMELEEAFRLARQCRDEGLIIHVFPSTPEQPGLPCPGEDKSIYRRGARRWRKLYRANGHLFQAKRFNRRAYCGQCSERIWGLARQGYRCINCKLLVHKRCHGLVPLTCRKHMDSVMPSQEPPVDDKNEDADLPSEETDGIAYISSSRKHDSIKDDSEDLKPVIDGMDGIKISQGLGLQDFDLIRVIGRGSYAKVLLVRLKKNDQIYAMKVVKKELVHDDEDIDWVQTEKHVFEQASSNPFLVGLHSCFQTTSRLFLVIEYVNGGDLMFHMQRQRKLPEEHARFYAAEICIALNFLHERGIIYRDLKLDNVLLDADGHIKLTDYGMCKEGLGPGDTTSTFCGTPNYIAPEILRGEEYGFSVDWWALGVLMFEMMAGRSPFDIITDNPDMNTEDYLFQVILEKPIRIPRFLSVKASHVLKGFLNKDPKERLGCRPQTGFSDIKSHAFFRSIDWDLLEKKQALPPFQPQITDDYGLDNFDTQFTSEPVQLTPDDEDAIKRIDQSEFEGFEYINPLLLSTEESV

IRAK1 = IRAK1 (Homo sapiens, UniProt P51617)
p38 alpha MAPK = p38 alpha MAPK (Homo sapiens, UniProt Q16539)
JAK2 = JAK2 (Homo sapiens, UniProt O60674)
TESK1 = TESK1 (Homo sapiens, UniProt Q15569)
TrkA = TrkA (Homo sapiens, UniProt P04629)
Chain of TrkA (P04629 33-796): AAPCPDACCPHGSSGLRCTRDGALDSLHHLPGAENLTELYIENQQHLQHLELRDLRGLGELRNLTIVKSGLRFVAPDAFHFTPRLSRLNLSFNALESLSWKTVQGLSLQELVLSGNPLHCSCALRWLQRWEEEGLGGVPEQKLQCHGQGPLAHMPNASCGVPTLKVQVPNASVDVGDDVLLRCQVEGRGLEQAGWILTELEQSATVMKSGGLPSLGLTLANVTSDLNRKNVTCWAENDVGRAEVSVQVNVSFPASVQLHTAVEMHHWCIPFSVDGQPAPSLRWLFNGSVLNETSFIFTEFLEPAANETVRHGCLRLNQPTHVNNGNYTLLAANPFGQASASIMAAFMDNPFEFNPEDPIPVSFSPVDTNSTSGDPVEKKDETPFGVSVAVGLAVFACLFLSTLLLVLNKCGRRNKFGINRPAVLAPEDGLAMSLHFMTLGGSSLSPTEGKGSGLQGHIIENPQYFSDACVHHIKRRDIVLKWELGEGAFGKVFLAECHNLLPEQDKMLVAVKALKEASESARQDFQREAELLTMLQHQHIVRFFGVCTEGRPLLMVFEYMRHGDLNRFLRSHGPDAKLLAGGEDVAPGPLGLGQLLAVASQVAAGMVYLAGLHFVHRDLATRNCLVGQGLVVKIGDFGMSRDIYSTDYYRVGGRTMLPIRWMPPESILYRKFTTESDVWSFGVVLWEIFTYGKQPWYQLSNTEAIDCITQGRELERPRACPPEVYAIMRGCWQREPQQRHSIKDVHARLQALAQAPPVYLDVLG

Chain of MNK2 (Q9HBH9 whole entry): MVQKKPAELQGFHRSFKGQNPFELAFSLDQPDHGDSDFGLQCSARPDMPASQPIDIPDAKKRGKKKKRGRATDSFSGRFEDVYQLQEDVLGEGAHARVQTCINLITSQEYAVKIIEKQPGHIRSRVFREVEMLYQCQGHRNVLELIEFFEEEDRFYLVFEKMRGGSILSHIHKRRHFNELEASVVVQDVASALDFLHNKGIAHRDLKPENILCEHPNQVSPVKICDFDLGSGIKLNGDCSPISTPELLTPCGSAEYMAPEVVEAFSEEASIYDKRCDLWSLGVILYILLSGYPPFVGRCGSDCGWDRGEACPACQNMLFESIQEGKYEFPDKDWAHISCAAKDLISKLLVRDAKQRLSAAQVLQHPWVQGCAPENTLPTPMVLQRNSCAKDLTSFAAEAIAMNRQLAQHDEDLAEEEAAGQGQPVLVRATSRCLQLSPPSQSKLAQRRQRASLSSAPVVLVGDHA
Chain of S6K1 (P23443 whole entry): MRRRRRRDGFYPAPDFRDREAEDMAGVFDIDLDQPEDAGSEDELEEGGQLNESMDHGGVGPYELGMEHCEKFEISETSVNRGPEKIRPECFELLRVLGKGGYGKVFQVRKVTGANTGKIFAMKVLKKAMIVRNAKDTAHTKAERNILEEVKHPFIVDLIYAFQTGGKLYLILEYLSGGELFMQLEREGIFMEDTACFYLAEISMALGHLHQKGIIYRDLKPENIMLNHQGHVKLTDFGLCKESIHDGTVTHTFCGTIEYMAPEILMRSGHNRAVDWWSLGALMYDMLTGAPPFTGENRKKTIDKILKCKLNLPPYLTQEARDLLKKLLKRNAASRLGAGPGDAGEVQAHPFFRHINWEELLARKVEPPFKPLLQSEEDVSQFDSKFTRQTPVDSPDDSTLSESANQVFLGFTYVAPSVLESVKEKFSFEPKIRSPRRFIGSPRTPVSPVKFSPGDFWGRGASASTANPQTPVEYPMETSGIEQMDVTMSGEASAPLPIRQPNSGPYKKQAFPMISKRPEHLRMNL
Chain of TESK1 (Q15569 whole entry): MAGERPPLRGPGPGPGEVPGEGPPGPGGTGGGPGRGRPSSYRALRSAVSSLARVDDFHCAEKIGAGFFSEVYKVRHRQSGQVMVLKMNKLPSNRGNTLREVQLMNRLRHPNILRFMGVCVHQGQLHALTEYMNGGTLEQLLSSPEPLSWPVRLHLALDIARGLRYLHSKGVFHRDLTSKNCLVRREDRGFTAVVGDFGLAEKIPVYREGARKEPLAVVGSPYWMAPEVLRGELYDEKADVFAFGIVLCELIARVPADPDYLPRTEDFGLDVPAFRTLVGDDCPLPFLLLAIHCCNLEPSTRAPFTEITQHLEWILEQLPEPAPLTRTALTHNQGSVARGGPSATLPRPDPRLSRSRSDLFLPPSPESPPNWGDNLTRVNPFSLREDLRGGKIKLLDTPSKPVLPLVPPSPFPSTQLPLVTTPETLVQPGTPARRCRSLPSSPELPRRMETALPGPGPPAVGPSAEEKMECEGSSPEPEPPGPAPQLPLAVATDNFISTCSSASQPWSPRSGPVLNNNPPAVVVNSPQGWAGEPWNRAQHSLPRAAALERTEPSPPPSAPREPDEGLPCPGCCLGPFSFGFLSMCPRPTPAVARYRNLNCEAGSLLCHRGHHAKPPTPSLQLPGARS
Chain of p38 alpha MAPK (Q16539 whole entry): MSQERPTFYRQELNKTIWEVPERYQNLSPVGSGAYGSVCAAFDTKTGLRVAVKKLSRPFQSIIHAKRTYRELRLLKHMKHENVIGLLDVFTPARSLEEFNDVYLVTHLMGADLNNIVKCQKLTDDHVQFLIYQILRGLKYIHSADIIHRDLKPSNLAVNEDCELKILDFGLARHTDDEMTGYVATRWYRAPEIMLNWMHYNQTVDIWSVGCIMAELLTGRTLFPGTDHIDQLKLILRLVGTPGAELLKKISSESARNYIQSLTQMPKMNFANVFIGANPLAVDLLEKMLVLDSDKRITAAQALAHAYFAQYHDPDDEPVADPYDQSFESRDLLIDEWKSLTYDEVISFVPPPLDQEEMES
Chain of JAK2 (O60674 whole entry): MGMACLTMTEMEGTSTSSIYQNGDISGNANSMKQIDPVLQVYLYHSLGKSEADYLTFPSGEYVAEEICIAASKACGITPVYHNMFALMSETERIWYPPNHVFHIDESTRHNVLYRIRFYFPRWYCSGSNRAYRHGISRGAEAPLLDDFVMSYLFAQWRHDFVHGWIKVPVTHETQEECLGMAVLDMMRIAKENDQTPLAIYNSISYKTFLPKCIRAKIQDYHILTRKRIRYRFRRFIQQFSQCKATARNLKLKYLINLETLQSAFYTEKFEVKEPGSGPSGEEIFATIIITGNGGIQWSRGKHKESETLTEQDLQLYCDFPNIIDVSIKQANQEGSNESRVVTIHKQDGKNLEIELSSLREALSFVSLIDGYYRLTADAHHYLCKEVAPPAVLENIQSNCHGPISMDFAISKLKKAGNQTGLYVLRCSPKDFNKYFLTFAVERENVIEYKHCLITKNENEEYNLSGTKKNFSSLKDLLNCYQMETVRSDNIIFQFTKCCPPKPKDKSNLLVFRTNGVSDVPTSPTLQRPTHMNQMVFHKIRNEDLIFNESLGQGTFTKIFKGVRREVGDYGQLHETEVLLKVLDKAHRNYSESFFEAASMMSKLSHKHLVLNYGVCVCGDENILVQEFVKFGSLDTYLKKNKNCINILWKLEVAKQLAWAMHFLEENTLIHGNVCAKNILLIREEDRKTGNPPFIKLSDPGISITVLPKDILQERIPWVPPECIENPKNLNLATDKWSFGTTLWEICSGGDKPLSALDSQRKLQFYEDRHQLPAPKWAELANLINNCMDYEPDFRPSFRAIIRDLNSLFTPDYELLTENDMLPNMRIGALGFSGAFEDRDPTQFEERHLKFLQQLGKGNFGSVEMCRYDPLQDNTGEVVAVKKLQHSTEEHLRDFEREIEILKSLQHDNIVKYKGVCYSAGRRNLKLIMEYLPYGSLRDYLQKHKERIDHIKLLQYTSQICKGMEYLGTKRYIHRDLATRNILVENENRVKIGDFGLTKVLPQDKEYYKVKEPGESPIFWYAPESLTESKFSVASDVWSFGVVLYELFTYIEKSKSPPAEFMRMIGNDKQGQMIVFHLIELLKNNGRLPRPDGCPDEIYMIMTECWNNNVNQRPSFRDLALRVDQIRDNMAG
Chain of p38 beta MAPK (Q15759 whole entry): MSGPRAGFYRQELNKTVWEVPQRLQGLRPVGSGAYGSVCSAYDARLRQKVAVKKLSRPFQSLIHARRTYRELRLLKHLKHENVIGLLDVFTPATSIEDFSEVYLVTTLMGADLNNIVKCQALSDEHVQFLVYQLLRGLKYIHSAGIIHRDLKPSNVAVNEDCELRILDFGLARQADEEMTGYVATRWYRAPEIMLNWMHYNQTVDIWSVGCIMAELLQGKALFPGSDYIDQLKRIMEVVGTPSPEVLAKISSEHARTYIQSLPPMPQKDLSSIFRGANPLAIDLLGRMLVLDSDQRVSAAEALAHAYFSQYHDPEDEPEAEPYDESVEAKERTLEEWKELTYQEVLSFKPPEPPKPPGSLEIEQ

SMILES | remaining activity at 1 µM (PAK6) [%] | remaining activity at 0.1 µM (PKA) [%] | remaining activity at 1 µM (PKA) [%] | remaining activity at 0.1 µM (MNK2) [%] | remaining activity at 1 µM (MNK2) [%] | remaining activity at 0.1 µM (p38 gamma MAPK) [%] | remaining activity at 0.1 µM (IR) [%] | remaining activity at 1 µM (IR) [%] | remaining activity at 0.1 µM (S6K1) [%] | remaining activity at 1 µM (S6K1) [%] | remaining activity at 0.1 µM (MAPKAP-K3) [%] | remaining activity at 1 µM (MAPKAP-K3) [%] | remaining activity at 0.1 µM (MEKK1) [%] | remaining activity at 1 µM (MEKK1) [%] | remaining activity at 0.1 µM (p38 beta MAPK) [%] | remaining activity at 1 µM (p38 beta MAPK) [%] | remaining activity at 0.1 µM (MARK2) [%] | remaining activity at 1 µM (MARK2) [%] | remaining activity at 0.1 µM (HER4) [%] | remaining activity at 1 µM (HER4) [%] | also measured
COc1cc(Nc2c(C#N)cnc3cc(OCCCN4CCN(C)CC4)c(OC)cc23)c(Cl)cc1Cl [Bosutinib, bosutinib] | 132 ± 7 | 111 ± 16 | 105 ± 7 | 87 ± 6 | 100 ± 9 | 88 ± 3 | 87 ± 7 | 107 ± 34 | 98 ± 1 | 86 ± 2 | 113 ± 1 | 103 ± 8 | 95 ± 5 | 85 ± 6 | 94 ± 15 | 108 ± 24 | 89 ± 8 | 68 ± 1 | 9 | 1 ± 1 | remaining activity at 0.1 µM (PKC alpha): 96 ± 5%; remaining activity at 1 µM (PKC alpha): 103 ± 3%; remaining activity at 0.1 µM (PKC zeta): 91 ± 2%; remaining activity at 1 µM (PKC zeta): 102 ± 4%; remaining activity at 0.1 µM (IRAK1): 77 ± 3%; remaining activity at 1 µM (IRAK1): 65%; remaining activity at 0.1 µM (p38 alpha MAPK): 97 ± 4%; remaining activity at 1 µM (p38 alpha MAPK): 72 ± 3%; remaining activity at 0.1 µM (JAK2): 72 ± 5%; remaining activity at 1 µM (JAK2): 26%; remaining activity at 0.1 µM (TESK1): 82 ± 15%; remaining activity at 1 µM (TESK1): 61 ± 2%; remaining activity at 0.1 µM (TrkA): 25 ± 2%; remaining activity at 1 µM (TrkA): 7%
Cc1nc(Nc2ncc(C(=O)Nc3c(C)cccc3Cl)s2)cc(N2CCN(CCO)CC2)n1 [Dasatinib] | 120 ± 4 | 110 ± 12 | 121 ± 27 | 97 ± 8 | 106 ± 2 | 100 ± 4 | 99 ± 2 | 94 ± 7 | 108 ± 3 | 113 ± 11 | 117 ± 3 | 132 ± 1 | 98 ± 4 | 102 ± 1 | 105 ± 11 | 44 ± 4 | 118 ± 4 | 126 ± 2 | 27 ± 1 | 6 | remaining activity at 0.1 µM (PAK6; 0.1 µM): 126 ± 9%; remaining activity at 1 µM (p38 gamma MAPK; 1 µM): 105 ± 7%; remaining activity at 0.1 µM (PKC alpha): 98 ± 3%; remaining activity at 1 µM (PKC alpha): 105 ± 14%; remaining activity at 0.1 µM (PKC zeta): 101 ± 3%; remaining activity at 1 µM (PKC zeta): 109 ± 7%; remaining activity at 0.1 µM (IRAK1): 96 ± 1%; remaining activity at 1 µM (IRAK1): 108 ± 3%; remaining activity at 0.1 µM (p38 alpha MAPK): 79 ± 15%; remaining activity at 1 µM (p38 alpha MAPK): 29 ± 2%; remaining activity at 0.1 µM (JAK2): 94 ± 2%; remaining activity at 1 µM (JAK2): 42 ± 1%; remaining activity at 0.1 µM (TESK1): 50 ± 3%; remaining activity at 1 µM (TESK1): 8%; remaining activity at 0.1 µM (TrkA): 107 ± 11%; remaining activity at 1 µM (TrkA): 88 ± 2%
